Test results published in US6894073B2, “Use of diterpene compound as a therapeutic agent of inflammation, immune disease or cancer” (Korea Research Institute of Bioscience and Biotechnology, priority 2000, dated 2005).

How the values were obtained:
nitric oxide (NO) = assay: Inhibition of NO production (nitrite, Griess reagent) in LPS-stimulated Raw 264.7 macrophage cells; type: cell-based, murine; conditions: for NO: 1 μg/ml LPS, 24 hours; for inhibition at 0.03 µg/mL / inhibition at 0.3 µg/mL / inhibition at 3 µg/mL: read-out: Inhibition rate (%) of NO production; for IC50: LPS-stimulated Raw 264.7 cells
Description: (§1) To investigate whether kaurane diterpene compounds obtained in Example 1 can inhibit the production of nitric oxide (NO) which induces apoptosis of the immune and neuron cells, the present inventors measured the amount of nitrite (NO2) accumulated in the culture medium of LPS-stimulated murine macrophage cells, which were treated with four kaurane diterpene compounds, kamebanin, kamebacetal A, kamebakaurin, or exisanin A.
In detail, Raw 264.7 murine macrophage cells (ATCC TIB-71) in DMEM medium were seeded to 96-well plate at a cell density of 1×10^5 cells/well and incubated for 3 hours at 37° C., 5% CO2 incubator. To induce NO synthesis in the macrophage cell, 1 μg/ml of LPS and 3 μg/ml, 0.3 μg/ml, and 0.03 μg/ml of kaurane diterpene compounds of the present invention were added to the medium and the plate was incubated for 24 hours. The amount of NO2, the final oxidation product of NO induced by the LPS in the medium was measured as followed. After collecting and centrifuging incubated medium, 100 μl of Griess reagent was added into 100 μl of each culture medium. Then, the medium was incubated for ten minutes at room temperature and absorbance at 550 nm wavelength was measured. Griess reagent was prepared by mixing a solution, wherein 1% sulfanilamide was dissolved in 5% phosphoric acid, and a solution of 0.1% naphyhylethylenediamine-HCl by a 1:1 ratio. To measure the amount of standard NO synthesis, NaNO2 was serially diluted and the absorbance was measured after reacting it with Griess reagent. From this, the standard curve for the amount of NO production was obtained. The amount of NO production in the culture medium treated with each compound was estimated using standard curve for NO determination.

prostaglandin E2 = assay: Inhibition of prostaglandin E2 production in LPS-stimulated Raw 264.7 cells (enzyme immunometric assay); type: cell-based, murine; conditions: for PGE2: 1 μg/ml LPS, 16 hours; for inhibition at 0.03 µg/mL / inhibition at 0.3 µg/mL / inhibition at 3 µg/mL / IC50: Mus musculus, RAW264.7; for inhibition at 0.03 µg/mL / inhibition at 0.3 µg/mL / inhibition at 3 µg/mL: read-out: Inhibition rate (%) of prostaglandin E2 production; for IC50: LPS-stimulated Raw 264.7 cells
Description: as §1, with “prostaglandin,” for “nitric oxide (NO)”, “inflammatory reaction,” for “apoptosis of the immune and neuron cells,”, “prostaglandin E2” for “nitrite (NO2)”
In detail, Raw 264.7 cells in DMEM medium were seeded to a 96-well plate at a cell density of 1×10^5 cells/well and were incubated for 18 hours. Cyclooxygenase-1, the constitutive rate-determining enzyme of the prostaglandin synthesis was inactivated by incubating for 3 hrs with 500 μM of aspirin and each well was washed two times with PBS (phosphate-buffered saline). To each well were added 1 μg/ml of LPS and 3 μg/ml, 0.3 μg/ml, and 0.03 μg/ml concentrations of kaurane diterpene compounds of the present invention and was incubated for 16 hours. After collecting supernatant by centrifugation, the amount of prostaglandin in the culture medium was quantified by enzyme immunometric assay.

TNF-α = assay: Inhibition of TNF-α production in LPS-stimulated Raw 264.7 cells (enzyme immunometric assay); type: cell-based, murine; conditions: for TNF-α: 1 μg/ml LPS, 16 hours; for inhibition at 0.03 µg/mL / inhibition at 0.3 µg/mL / inhibition at 3 µg/mL / IC50: Mus musculus, RAW264.7; for inhibition at 0.03 µg/mL / inhibition at 0.3 µg/mL / inhibition at 3 µg/mL: read-out: Inhibition rate (%) of TNF-α production; for IC50: LPS-stimulated Raw 264.7 cells
Description: To investigate whether kaurane diterpene compounds obtained in Example 1 can inhibit effectively the production of tumor necrosis factor-α (TNF-α), one of the inflammatory mediator, which confers cytotoxic effect and induces the production of prostaglandin and cytokines, the present inventors measured the amount of TNF-α accumulated in the culture medium of LPS-stimulated murine macrophage cells, which were treated with four kaurane diterpene compounds, kamebanin, kamebacetal A, kamebakaurin, or exisanin A.
In detail, Raw 264.7 cells in DMEM medium were seeded to a 96-well plate at a cell density of 1×10^5 cells/well and were incubated for 3 hours at 37° C. in a 5% CO2 incubator. To each well were added 1 μg/ml of LPS and 3 μg/ml, 0.3 μg/ml, and 0.03 μg/ml concentrations of kaurane diterpene compounds of the present invention and was incubated for 16 hours. After collecting supernatant by centrifugation, the amount of TNF-α in the culture medium was quantified by enzyme immunometric assay.

NF-κB = NF-κB activation, SEAP reporter in LPS-stimulated RAW-NF-AP cells; type: cell-based, murine; conditions: for inhibition at 0.03 µg/mL / inhibition at 0.3 µg/mL / inhibition at 3 µg/mL / IC50: Mus musculus; for inhibition at 0.03 µg/mL: 0.03 μg/ml compound; for inhibition at 0.03 µg/mL / inhibition at 0.3 µg/mL / inhibition at 3 µg/mL: 1 μg/ml LPS, 16 hours; for inhibition at 0.3 µg/mL: 0.3 μg/ml compound; for inhibition at 3 µg/mL: 3 μg/ml compound; for IC50: RAW-NF-AP cells, LPS
Description: RAW-NF-AP cells, which can be used effectively to detect the NF-κB dependent expression of reporter gene, (Korean Patent Application No. 1999-0006025), were seeded to a 96-well plate at a cell density of 1×10^5 cell/well and were incubated for 3 hours at 37° C. in a 5% CO2 incubator. Thereafter, 1 μg/ml concentration of LPS and 0.03 μg/ml, 0.3 μg/ml, and 3 μg/ml concentrations of kaurane diterpene compounds of the present invention were added to each well and was incubated for 16 hours. After collecting supernatant by centrifugation, the amount of secreted alkaline phosphatase (SEAP) in the culture medium of which expression is regulated by the activation of NF-κB was quantified.

adjuvant arthritis model = assay: Adjuvant arthritis model, paw volume; type: in vivo, Sprague-Dawley rat; conditions: day 16-22, paw volume on 23rd day
Description: Finding the inhibitory effect of kaurane diterpene compounds on the production of NO, prostaglandin, and TNF, and on the activation of NF-κB in the murine macrophage cells stimulated by LPS, the present inventors investigated the pharmacological efficacy of kaurane diterpene compounds with a adjuvant arthritis model according to the method of Futaki et al. (General Pharmacology, 1993, 24, 105-110). To prepare animal model of the arthritis, 0.05 ml of 0.1% Mycobacterium butyricum suspended in Freud adjuvant (Sigma, USA) was injected intradermally to the left hind paw of the male Sprague-Dawley rat of 180 g weight. On the fifteenth day after injection, the volume of the right paw of the rats was measured using plethysmometer (Ugo-Basile, Italy), and only the rats having arthritis on the right leg were selected. Thereafter, the selected rats were divided into four groups, six rats per each group. Four kinds of kaurane diterpene compounds of the present invention were administered orally to each groups everyday from the sixteenth day to twenty-second day with doses of 3 mg/kg/day, 10 mg/kg/day, and 20 mg/kg/day in the form of the suspended solution with 0.1% methylcellulose. The inhibition rate of arthritis was calculated by comparing the volume of the paw with that of the control on the 23rd day.

[1] = Mus musculus, RAW264.7, 0.03 μg/ml compound
[2] = Mus musculus, RAW264.7, 0.3 μg/ml compound
[3] = Mus musculus, RAW264.7, 3 μg/ml compound

Row | IC50 (prostaglandin E2) [µM] | SMILES | NO (nitric oxide (NO); 0.03 μg/ml compound) [µM] | NO (nitric oxide (NO); 0.3 μg/ml compound) [µM] | NO (nitric oxide (NO); 3 μg/ml compound) [µM] | inhibition at 0.03 µg/mL (nitric oxide (NO); [1]) [%] | inhibition at 0.3 µg/mL (nitric oxide (NO); [2]) [%] | inhibition at 3 µg/mL (nitric oxide (NO); [3]) [%] | IC50 (nitric oxide (NO); Mus musculus, RAW264.7) [µM] | PGE2 (prostaglandin E2; 0.03 μg/ml compound) [ng/mL] | PGE2 (prostaglandin E2; 0.3 μg/ml compound) [ng/mL] | PGE2 (prostaglandin E2; 3 μg/ml compound) [ng/mL] | inhibition at 0.03 µg/mL (prostaglandin E2; 0.03 μg/ml compound) [%] | inhibition at 0.3 µg/mL (prostaglandin E2; 0.3 μg/ml compound) [%] | inhibition at 3 µg/mL (prostaglandin E2; 3 μg/ml compound) [%] | TNF-α (TNF-α; 0.03 μg/ml compound) [pg/mL] | TNF-α (TNF-α; 0.3 μg/ml compound) [pg/mL] | TNF-α (TNF-α; 3 μg/ml compound) [pg/mL] | inhibition at 0.03 µg/mL (TNF-α; 0.03 μg/ml compound) [%] | inhibition at 0.3 µg/mL (TNF-α; 0.3 μg/ml compound) [%] | inhibition at 3 µg/mL (TNF-α; 3 μg/ml compound) [%] | also measured
1 | 5.37 | C=C1C(=O)[C@@]23C(C[C@H](O)[C@@H]1[C@H]2O)[C@@]1(C)C(C[C@H]3O)C(C)(C)CC[C@@H]1O (stereo partly shown) [Exisanin A, exisanin A] | 32.5 ± 3.5 | 22.2 ± 2.3 | 6.7 ± 0.8 | 37 | 59.3 | 92.5 | 0.35 | 13.7 ± 0.3 | 10.7 ± 1.3 | 5.7 ± 0.7 | -16.1 | 11.7 | 57.7 | 1243.0 ± 195.6 | 936.1 ± 0.00 | 103.2 ± 12.8 | 25.8 | 44.4 | 94.8 | IC50 (TNF-α): 0.61 µM; inhibition at 0.03 µg/mL (NF-κB): -2.6%; inhibition at 0.3 µg/mL (NF-κB): 19.4%; inhibition at 3 µg/mL (NF-κB): 93.7%; IC50 (NF-κB): 1.66 µM; Inhibition rate (%) of arthritis (adjuvant arthritis model; 3 mg/kg/day oral): 33 ± 14%; Inhibition rate (%) of arthritis (adjuvant arthritis model; 10 mg/kg/day oral): 52 ± 12%; Inhibition rate (%) of arthritis (adjuvant arthritis model; 20 mg/kg/day oral): 64 ± 13%
2 | 2.8 | C=C1C(=O)[C@@]23C4CC5C(C)(C)CC[C@H](O)[C@@]5(C(OC)O4)C2CC[C@@H]1[C@H]3O (stereo partly shown) [Kamebacetal A, kamebacetal A] | 38.5 ± 4.8 | 19.9 ± 3.7 | 3.3 ± 0.7 | 23.9 | 64.2 | 100 | 0.584 | 13.2 ± 0.8 | 9.8 ± 1.4 | 2.7 ± 0.4 | -11.3 | 19.6 | 85.6 | 1495.0 ± 239.7 | 691.4 ± 152.7 | 38.9 ± 1.0 | 10.5 | 59.2 | 98.7 | NO production compared with negative control (no LPS) (nitric oxide (NO); 3 μg/ml): nearly the same as that of the negative control; IC50 (nitric oxide (NO)): 0.58 µM; IC50 (TNF-α): 0.6 µM; SEAP activity compared with negative control (no LPS) (NF-κB; 3 μg/ml): to the extent of negative control; inhibition at 0.03 µg/mL (NF-κB): 1.3%; inhibition at 0.3 µg/mL (NF-κB): 62.2%; inhibition at 3 µg/mL (NF-κB): 110%; IC50 (NF-κB): 2.45 µM; Inhibition rate (%) of arthritis (adjuvant arthritis model; 3 mg/kg/day oral): 33 ± 18%; Inhibition rate (%) of arthritis (adjuvant arthritis model; 10 mg/kg/day oral): 55 ± 10%; Inhibition rate (%) of arthritis (adjuvant arthritis model; 20 mg/kg/day oral): 69 ± 14%
3 | 0.88 | C=C1C(=O)[C@@]23[C@H](O)C[C@@H]4C(C)(C)CC[C@H](O)[C@@]4(C)[C@@H]2CC[C@@H]1[C@H]3O [Kamebanin, kamebanin] | 23.4 ± 1.3 | 4.6 ± 0.6 | 3.6 ± 0.3 | 56.5 | 97.2 | 99.3 | 0.06 | 14.4 ± 2.2 | 4.0 ± 0.3 | 0.7 ± 0.1 | -22.5 | 73.9 | 104 | 1835.0 ± 158.8 | 805.6 ± 195.4 | 19.8 ± 0.7 | -10 | 52.3 | 99.8 | Prostaglandin production compared with negative control (no LPS) (prostaglandin E2; 3 μg/ml): nearly the same as that of the negative control; IC50 (TNF-α): 1 µM; inhibition at 0.03 µg/mL (NF-κB): 0.6%; inhibition at 0.3 µg/mL (NF-κB): 48.5%; inhibition at 3 µg/mL (NF-κB): 99.7%; IC50 (NF-κB): 0.72 µM; Inhibition rate (%) of arthritis (adjuvant arthritis model; 3 mg/kg/day oral): 30 ± 15%; Inhibition rate (%) of arthritis (adjuvant arthritis model; 10 mg/kg/day oral): 50 ± 12%; Inhibition rate (%) of arthritis (adjuvant arthritis model; 20 mg/kg/day oral): 68 ± 14%
